{
  "source": "patent US5763196A",
  "about": "“Assays using cross-linked polypeptide fragments of β-galactosidase” (priority 1996, dated 1998)",
  "origin": "cited, not measured here",
  "tested_on": "interleukin-1-β converting enzyme (ICE protease)",
  "data": [
    {"smiles": "CC(=O)N[C@@H](Cc1ccc(O)cc1)C(=O)N[C@H](C(=O)N[C@@H](C)C(=O)N[C@@H](CC(=O)O)C(=O)CCl)C(C)C", "note": "[Ac-Tyr-Val-Ala-Asp-*]", "values": [
      {"measurement": "inhibition of ICE protease (in words)", "setting": "Nature 375:78-81 (1995)", "result": "potent inhibitor"}
    ]},
    {"smiles": "CNC(=O)[C@H](CC(=O)O)NC(=O)[C@H](C)NC(=O)[C@@H](NC(=O)[C@H](Cc1ccc(O)cc1)NC(C)=O)C(C)C", "note": "[Ac-Tyr-Val-Ala-Asp-NH-CH3]", "values": [
      {"measurement": "minimal and best peptide substrate found to date", "setting": "Thornberry, Nature 356:768-74 (1992)", "result": "minimal and best peptide substrate"}
    ]}
  ]
}
